Measurements published in publication PMC10287695, “Non-covalent inhibitors of thioredoxin glutathione reductase with schistosomicidal activity in vivo” (Nature Communications, 2023).
“And” between values parts separate entries of the source, which are not always exact repeats. Identical values can stand only once. Like-named read-outs stand apart in the source and are kept apart here. Marks after values point to notes of the source that are not given here.

Experiments:
[1] = tested on: S. mansoni newly transformed schistosomula (NTS); assay: Schistosomicidal activity ex vivo, NTS (Cell Titer Glo); assay type: cell-based; conditions: for LD50 ex vivo S. mansoni NTS: 24 h exposure, Cell TiterGlo
Protocol: Oncomelania hupensis subsp. hupensis, Chinese strain, infected with S. japonicum, Chinese strain, and Biomphalaria glabrata, strain NMRI, infected with S. mansoni, strain NMRI, were provided by the NIAID Schistosomiasis Resource Center for distribution through BEI Resources, NIAID, NIH. After infections were patent, snails were exposed to bright light for 1 hr to obtain cercariae. Cercariae were mechanically transformed to schistosomula. Briefly, cercariae were placed on ice for 30 min and then centrifuged at 350 × g for 10 mins. The supernatant was decanted and 2 ml of serum-free M199 medium was added to cercarial pellets and vortexed for 1 min until cercarial tails were detached. NTS were purified by layering on 4 °C Percoll gradient suspension containing Eagle’s minimum essential medium, penicillin-streptomycin (10,000 U per ml penicillin/10,000 U per ml streptomycin), and 1 M HEPES in 0.85% NaCl with cercariae suspension and centrifuged at 500 × g for 15 min. Cercarial pellets were resuspended and washed thrice in serum-free M199 medium and collected at 100 × g for 5 min. NTS (240) were transferred to U-bottom 96 well assay plates containing 200 µl of M199 medium supplemented with 5.5 mM D-glucose, penicillin-streptomycin and 5% heat inactivated fetal bovine serum and incubated at 37 °C in a 5% CO2 incubator overnight.
(§1) DMSO formulated compounds were diluted with phenol red free M199 medium or RPMI medium for NTS or juvenile and adult worms, respectively, at <1% DMSO final concentrations. NTS, juvenile and adult worms from overnight cultures were tested against compounds in triplicate. Controls were treated with DMSO alone or 5 µM AF as a positive control in appropriate medium. Worm viability was assessed at 24 or 72 h by measuring ATP content of worms using Cell Titer Glo Assay (Promega) as described. Schistosome viabilities in the presence of the compounds were assessed using this formula: % Viability = Averages of Test / Averages of DMSO Control x 100.

[2] = biological target: T1, S. mansoni TGR (Schistosoma mansoni, UniProt Q962Y6); assay: S. mansoni TGR enzyme inhibition (DTNB reduction); assay type: biochemical; conditions: for inhibition at 30 µM: compound 30 µM; for IC50: 15 min preincubation (enzyme + 100 µM NADPH + compound); for inhibition at 15 µM: compound 15 µM
T1 construct: made in house
T1 sequence (Q962Y6 1-598): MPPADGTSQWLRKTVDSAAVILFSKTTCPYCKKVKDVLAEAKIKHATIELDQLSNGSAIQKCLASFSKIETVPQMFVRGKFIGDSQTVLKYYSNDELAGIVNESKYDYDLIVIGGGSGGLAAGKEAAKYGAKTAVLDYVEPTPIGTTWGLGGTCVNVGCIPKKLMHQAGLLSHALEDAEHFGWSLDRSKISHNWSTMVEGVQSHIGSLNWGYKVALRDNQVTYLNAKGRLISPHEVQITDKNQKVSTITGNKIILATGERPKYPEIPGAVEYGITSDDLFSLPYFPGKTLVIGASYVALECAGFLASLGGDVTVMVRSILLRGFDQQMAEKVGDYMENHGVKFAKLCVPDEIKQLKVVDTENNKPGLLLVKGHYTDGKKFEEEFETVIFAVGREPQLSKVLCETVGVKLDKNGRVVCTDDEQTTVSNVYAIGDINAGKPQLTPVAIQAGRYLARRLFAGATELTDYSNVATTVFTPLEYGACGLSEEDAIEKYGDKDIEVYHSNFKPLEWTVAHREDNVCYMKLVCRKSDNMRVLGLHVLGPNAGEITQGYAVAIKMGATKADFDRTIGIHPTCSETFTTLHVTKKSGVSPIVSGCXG

[3] = tested on: Vero cells; assay: Cytotoxicity in mammalian cells (Cell Titer Glo); assay type: cell-based; conditions: for LD50 ex vivo VERO: African green monkey, 24 h
Protocol: Following overnight incubation, formulated DMSO-compound stock solutions were diluted with DMEM at <1% DMSO final concentrations. […] Vero cells treated similarly with different concentrations of PZQ, MZM and AF (Cayman Chemicals) were used as positive controls.

[4] = tested on: S. mansoni adult worms; assay: Schistosomicidal activity ex vivo, adult worms (Cell Titer Glo), alone or with channel blockers; assay type: cell-based; conditions: for LD50 ex vivo S. mansoni adult: 24 h exposure
Protocol: Three-week old, female Swiss-Webster mice obtained from the Charles River were housed in the Comparative Research Center of Rush University Medical Center. Mice were infected by percutaneous tail exposure to about 200 S. mansoni or 50 S. japonicum cercaria for adult worms and about 1000 cercaria for juvenile S. mansoni worms through natural transdermal penetration of the cercariae for 1 h[81].
as §1, with “Worm viability was assessed at 24 or 72 h by measuring ATP content of worms using Cell Titer Glo Assay (Promega) as described.” left out

[5] = Schistosoma mansoni, 72 h, read-out: % viability, S. mansoni NTS
[6] = TGR, 15 minutes pre-incubation, read-out: % inhibition
[7] = TGR, 15 minutes pre-incubation, compound 66.7 µM, read-out: % inhibition
[8] = Schistosoma mansoni, S. mansoni adult worms, Conc. 5 µM, read-out: % viability
[9] = Schistosoma mansoni, S. mansoni adult worms, Conc. 30 µM, read-out: % viability
[10] = Schistosoma mansoni, S. mansoni adult worms, Conc. 50 µM, read-out: % viability
[11] = Schistosoma mansoni, 10 µM, compound alone, read-out: % viability, adult worms
[12] = Schistosoma mansoni, 30 µM, compound alone, read-out: % viability, adult worms
[13] = Schistosoma mansoni, S. mansoni adult worms, Conc. 10 µM, read-out: % viability

SMILES | LD50 ex vivo S. mansoni NTS [1] [µM] | LD50 ex vivo VERO [3] | LD50 ex vivo S. mansoni adult ([4]; compound alone) | viability at 5 µM ([1]; Schistosoma mansoni) [%] | viability at 15 µM ([1]; Schistosoma mansoni) [%] | viability at 30 µM ([1]; Schistosoma mansoni) [%] | viability at 50 µM ([1]; Schistosoma mansoni) [%] | inhibition at 30 µM [2, 6] [%] | inhibition at 66.7 µM [2, 7] [%] | viability at 5 µM [4, 8] [%] | viability at 30 µM [4, 9] [%] | viability at 50 µM [4, 10] [%] | viability at 1 µM ([1]; Schistosoma mansoni) [%] | IC50 [2] [µM] | inhibition at 15 µM [2, 6] [%] | viability at 10 µM [4, 11] [%] | viability at 30 µM [4, 12] [%] | viability at 10 µM [4, 13] [%] | other results
Cc1oc(-c2ccc3ccccc3c2)nc1CNC1CCCCCC1 [Compound 5] | 5.8 ± 0.15 | >50^a µM | 9.36 ± 0.47 µM | – | – | – | – | – | – | – | – | – | – | – | – | – | – | – | inhibition at 66.7 µM ([2]; 6 h preincubation (enzyme + 100 µM NADPH + compound), read-out: S. mansoni TGR inhibition (%) at 66.7 µM): 73%
C#CCN(Cc1nc(-c2ccccc2)oc1C)[C@@H]1C[C@@H]2C[C@H]([C@H]1C)C2(C)C [Compound 6] | 17.5 ± 3.7 | >100^a µM | 15.7 ± 0.64 µM | 81.1 | 57 | 30.8 | 26.4 | 95.8 | 96.4 | 88.5 | 42 | 23.3 | – | – | – | – | – | – | LD50 NTS after 72 h exposure ([1]; 72 h exposure): 7.8 ± 2.36 µM; viability at 1.25 µM [1, 5]: 86%; viability at 2.5 µM [1, 5]: 73.8%; viability at 5 µM [1, 5]: 55.5%; viability at 10 µM [1, 5]: 45.1%; inhibition at 1 µM ([2]; TGR, 15 minutes pre-incubation, compound 1 µM): 26.3%; inhibition at 5 µM ([2]; TGR, 15 minutes pre-incubation, compound 5 µM): 74.8%; times more potent against TGR than human TrxR1 ([2]; ratio of IC50s): at least 25 fold; viability at 15 µM ([4]; Schistosoma mansoni, S. mansoni adult worms, Conc. 15 µM, read-out: % viability): 50.6%
Cc1oc(C2CCCCC2)nc1C(=O)N[C@@H]1C[C@@H]2C[C@H]([C@H]1C)C2(C)C [Compound 7] | 4.7 ± 0.31 | >50^a µM | 32.6 ± 0.26 µM | 40.2 | – | – | – | 88.1 | 95.1 | 99.8 | 59 | – | 85.7 | 14.6 ± 1.22 | 75.5 | 72.9 | 59 | 72.9 | viability at 1.5 µM ([1]; Schistosoma mansoni): 72.1%; viability at 2.5 µM ([1]; Schistosoma mansoni): 47.6%; viability at 5 µM ([4]; Schistosoma mansoni, 5 µM, compound alone, read-out: % viability, adult worms): 99.8%; viability at 25 µM ([4]; Schistosoma mansoni, 25 µM, compound alone, read-out: % viability, adult worms): 63%; viability at 25 µM ([4]; Schistosoma mansoni, S. mansoni adult worms, Conc. 25 µM, read-out: % viability): 63%
C[C@@H]1[C@H]2C[C@@H](C[C@H]1NCc1nc3ccccc3n1C1CCCCCC1)C2(C)C [Compound 8] | 9.4 ± 0.74 | 32.7 ± 2.99 µM | 22.3 ± 0.2 µM and 22.3 ± 0.20 µM | 84.8 | 28.2 | 11.9 | 1.87 | 62.9 | 78.8 | – | 30.6 | 14 | 91.9 | 10.3 ± 2.01 | 57.4 | 85.4 | 30.6 | 85.4 | viability at 0.1 µM ([1]; Schistosoma mansoni): 99.8%; viability at 10 µM ([1]; Schistosoma mansoni): 33.1%; viability at 100 µM ([1]; Schistosoma mansoni): 0.303%; EC50 ([3]; Chlorocebus sabaeus, Vero, estimate from raw data, read-out: EC50 viability of Vero cells): > 50 µM; viability at 50 µM ([4]; Schistosoma mansoni, 50 µM, compound alone, read-out: % viability, adult worms): 14%; viability at 100 µM ([4]; Schistosoma mansoni, 100 µM, compound alone, read-out: % viability, adult worms): 6.59%; viability at 100 µM ([4]; Schistosoma mansoni, S. mansoni adult worms, Conc. 100 µM, read-out: % viability): 6.59%
